This is an account of results in US20230346853A1, “Probiotic Lyophilizate Reactivation Composition for Improving Intestinal Survivability and Adhesion of Probiotics” (COSMAX NBT, INC., priority 2021, published 2023).

Like-named read-outs stand apart in the source and are kept apart here.

What all share (type): cell-based
Series [1] has as its system Lactobacillus plantarum HAC03. Kind of series: Zeta potential of lyophilized probiotics mixed with single ingredients (screening). Particulars: 0.1 M ingredient, rehydrated 1 min, pH 2.5. As to the method: In this experimental example, Lactobacillus plantarum HAC03 (accession number: KCTC13242BP, the Korean Research Institute of Bioscience and Biotechnology) (hereinafter referred to as “HAC03”), which was described in Korean Patent Application No. 10-2017-0051574, was used as a probiotic strain.
Afterwards, 2 mL of pH 2.5 distilled water was added to each sample, the pH was re-adjusted using HCl 0.1 N, and 800 μl of the calibrated sample was loaded in DTS1080 cuvettes. The electrophoretic mobility was measured by the Zetaizer Nano ZEN 3600 (Malvern Panalytica, UK) after 2 minutes of equilibration and the Smoluchowski equation was used to convert the data into zetapotential values.
In this experiment, zeta potentials were measured at a pH of 2.5 in consideration of the highly acidic stomach environment, which is one of the initial hurdles that drastically reduce the survivability of the bacteria.

Series [2] relates to Lactobacillus plantarum HAC03. Kind of series: in vitro Simulated Stomach Duodenum Passage (SSDP) probiotic survivability, lyophilized HAC03. To be noted: for viability at 100000 µM: Lactiplantibacillus plantarum. As to the method: The HAC03 strain was mixed with each of the single compositions and 1 mL of distilled water for 1 min. The compositions were formulated to have a final concentration of 0.1 M when dissolved in 1 ml of distilled water. Thereafter, 9 mL of distilled water adjusted to have a pH of 2.5 was added to each mixture. The pH was readjusted back to 2.5 in case of an increased pH due to the nature of some of the single ingredients (in order to not affect the survival of the probiotics). After adjusting the pH to 2.5, the tubes were incubated at 37° C. for 1 hour to apply the low-pH gastric stress condition. […] During the gastrointestinal tract assay, the samples were taken immediately, 1 hour, and […] after the incubation (t=0, 1, and 2). The probiotic survivability of each sample after gastric stress and bile stress was calculated by counting viable colonies.

Series [3] deals with Lactobacillus casei Lc-11. Kind of series: Bacterial adhesion to human enterocyte-like Caco-2/TC-7 cell line, lyophilized Lc-11. Particulars: 0.03 M, compared to the freeze-dried form. The source says:
(§1) An examination was made to see whether the effect of reactivating lyophilized probiotics is applicable to various strains in this experimental example. In this regard, lyophilized Bifidobacterium longum Bl-05 (Dupont; hereinafter referred to as “Bl-05”), Lactobacillus plantarum Lp-115 (Dupont; hereinafter referred to as “Lp-115”), Lactobacillus casei Lc-11 (Dupont; hereinafter referred to as “Lc-11”), and 7-strain mixture (400B) (Dupont; hereinafter referred to as “MIX”) were reactivated with L-lysine and then assayed for their ability to adhere to the human enterocyte-like Caco-2/TC-7 cell line.
(§2) Lyophilizates of the three strains and the 7-strain mix were adjusted to 2×10^8 CFU/g and mixed with 0.03 M L-lysine or 0.03 M proline. The pellets were washed three time with 1× PBS and resuspended in 10 ml MEM cell culture media supplemented with 20% FBS, 2 mM glutamine, and 1% non-essential amino acids. A bacterial adhesion assay was performed according to the method of Botes et al. (Arch. Microbiol, 190 (2008), pp. 573-584) with some modifications. […] To quantify the number of bacteria attached to Caco-2/TC-7 cells, the samples were serially diluted, incubated on MRS agar plates for 48 hours (37° C.), and then counted to measure relative adhesion ratio (counts of attached bacteria in test groups to counts of attached bacteria in the control). […]

The subject of series [4] is Bifidobacterium longum Bl-05. Description: Bacterial adhesion to human enterocyte-like Caco-2/TC-7 cell line, lyophilized Bl-05. Particulars: 0.03 M, compared to the freeze-dried form.
From the text: as §1, §2

Series [5] relates to Lactobacillus plantarum Lp-115. Kind of series: Bacterial adhesion to human enterocyte-like Caco-2/TC-7 cell line, lyophilized Lp-115. Particulars: 0.03 M; L-lysine compared to the freeze-dried form, proline compared to L-lysine-reactivated.
From the text: as §1, §2

A further series deals with 7-strain mixture (400B). Description: Bacterial adhesion to human enterocyte-like Caco-2/TC-7 cell line, lyophilized 7-strain mixture. Particulars: 0.03 M, compared to the freeze-dried form.
From the text: as §1, §2

For the compound `Cl.NCCCC[C@H](N)C(=O)O` [L-Lysine hydrochloride, L-lysine hydrochloride], in series [1], the “zeta potential of lyophilized HAC03 mixed with the ingredient (sign, FIG. 1)” value was “negative zeta potentials”. Besides, the viability at 100000 µM was 85.2% in series [2] (HAC03, 1 h, pH 2.5, read-out: Stomach Survivability (%)) and 48.4% in series [2] (HAC03, 2 h, pH 6, read-out: Duodenum Survivability (%)). For the same compound, in series [2] (Table 1, 0.1 M ingredient, pH 2.5, 37° C., 1 hour), the “Stomach log CFU/mL” value is listed as 7.87 ± 0.07 log CFU/mL. Also, the “Duodenum log CFU/mL” value in series [2] (Table 1, 0.1 M ingredient, then bile salts (10% ox gall) and pH 6.0 synthetic duodenum juice, 2 hours) is reported as 7.62 ± 0.09 log CFU/mL. Also, the “intestinal survivability (acid resistance and bile resistance) in words” value in series [2] (Table 1, compared to fresh bacteria / distilled water) was “increased in acid resistance and bile resistance”. Moreover, the “bacterial cell adhesion to Caco-2/TC-7 (FIGS. 2A and 2E), in words” value in series [3] is listed as “significantly increased bacterial cell adhesion”. Further, the “bacterial cell adhesion to Caco-2/TC-7 (FIGS. 2B and 2F), in words” value in series [4] was “significantly increased bacterial cell adhesion”. Moreover, the “bacterial cell adhesion to Caco-2/TC-7 (FIGS. 2C and 2G), in words” value in series [5] is recorded as “significantly increased bacterial cell adhesion”. In addition, the “bacterial cell adhesion to Caco-2/TC-7 (FIGS. 2D and 2H), in words” value in the series with 7-strain mixture (400B) was “significantly increased bacterial cell adhesion”.
For `O=C(O)[C@@H]1CCCN1` [proline, reference compound], the “zeta potential of lyophilized HAC03 mixed with the ingredient (sign, FIG. 1)” value in series [1] is reported as “positive zeta potentials”. Further, in series [3], the “bacterial cell adhesion to Caco-2/TC-7 (FIGS. 2A and 2E), in words” value is “remarkably lower in adhesion”. Also, the “bacterial cell adhesion to Caco-2/TC-7 (FIGS. 2B and 2F), in words” value in series [4] was “remarkably lower in adhesion”. The “bacterial cell adhesion to Caco-2/TC-7 (FIGS. 2C and 2G), in words” value in series [5] is reported as “remarkably lower in adhesion”. Besides, in the series with 7-strain mixture (400B), the “bacterial cell adhesion to Caco-2/TC-7 (FIGS. 2D and 2H), in words” value was “remarkably lower in adhesion”.
